We go through 28 compounds from US7153858B2, “Arylpiperazinyl compounds” (Epix Delaware, Inc., priority 2003, dated 2006).

What all share (type): binding
One assay concerns α1. The assay can be described thus: α1 cross-reactivity (% inhibition / Ki), Table 1.
A further assay concerns α2. Description: α2 cross-reactivity (% inhibition / Ki), Table 1.
The next assay concerns the target T1, 5-HT1A (Homo sapiens, UniProt P08908).
T1 sequence (P08908 1-422): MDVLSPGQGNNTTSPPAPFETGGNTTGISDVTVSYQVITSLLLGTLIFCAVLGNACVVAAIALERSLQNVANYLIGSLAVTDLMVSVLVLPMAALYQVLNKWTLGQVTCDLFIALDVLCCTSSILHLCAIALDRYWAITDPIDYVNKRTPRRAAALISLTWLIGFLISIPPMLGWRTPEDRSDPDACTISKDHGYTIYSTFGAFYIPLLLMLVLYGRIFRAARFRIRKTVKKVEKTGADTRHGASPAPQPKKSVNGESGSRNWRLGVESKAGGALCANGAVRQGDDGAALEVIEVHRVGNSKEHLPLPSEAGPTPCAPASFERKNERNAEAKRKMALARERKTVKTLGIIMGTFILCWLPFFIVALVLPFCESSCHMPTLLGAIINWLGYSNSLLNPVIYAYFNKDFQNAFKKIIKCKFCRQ
The assay can be described thus: 5-HT1A receptor affinity (Ki), Table 1.

pKi: −log10 of the molar value. Counter-ions that a name gives are not always drawn. Like-named read-outs stand apart in the source and are kept apart here.

Usually pKi stands for the Ki on a negative log10 scale, so that one unit is a factor of ten. For `CC(=O)Nc1cccc(N2CCNCC2)c1.Cl` [N-(3-Piperazin-1-yl-phenyl)-acetamide HCl], the α1 % inhibition in the assay on α1 was determined as 0%. In the assay with α2, this compound came in with a α2 % inhibition of 35%. In addition, the pKi at 5-HT1A (5-HT1A (Ki)) is 8.54.
Compound `CN(C)c1cccc(N2CCN(CC3CCN(S(=O)(=O)c4ccc(F)cc4)CC3)CC2)c1` [(3-{4-[1-(4-Fluoro-benzenesulfonyl)-piperidin-4-ylmethyl]-piperazin-1-yl}-phenyl)-dimethyl-amine] displayed a α1 % inhibition in the assay with α1 of 74%. In the assay with α2, the α2 % inhibition was 0%. Besides, the pKi at 5-HT1A (read-out: 5-HT1A (Ki)) is 6.29.
Regarding `Cc1ccc(S(=O)(=O)NCCCCN2CCN(c3ccccc3)CC2)cc1` [4-Methyl-N-[4-(4-phenyl-piperazin-1-yl)-butyl]-benzenesulfonamide], the α1 % inhibition in the assay on α1 is reported as 98%. The compound further displayed a α2 % inhibition in the assay on α2 of 90%. Besides, at 5-HT1A (read-out: 5-HT1A (Ki)), the pKi is 7.40.
The compound `CC(=O)Nc1cccc(N2CCN(CCCCN(C)S(=O)(=O)CC3CCCCC3)CC2)c1` [N-(3-{4-[4-(Cyclohexylmethanesulfonyl-methyl-amino)-butyl]-piperazin-1-yl}-phenyl)-acetamide] yielded a α1 % inhibition in the assay on α1 of 37%. Besides, the pKi on α2 is 6.21; on 5-HT1A (read-out: 5-HT1A (Ki)), 8.89. Moreover, the α2 % inhibition in the assay with α2 was found to be 47%.
`COc1ccccc1N1CCN(CCCCNS(=O)(=O)CC2CCCCC2)CC1` [C-Cyclohexyl-N-{4-[4-(2-methoxy-phenyl)-piperazin-1-yl]-buty] [C-Cyclohexyl-N-{4-[4-(2-methoxy-phenyl)-piperazin-1-yl]-butyl}-methanesulfonamide] displayed a α1 % inhibition with α1 of 98%.
The compound `CC(=O)Nc1cccc(N2CCN(CC3CCN(S(=O)(=O)C(C)C)CC3)CC2)c1` [N-(3-{4-[1-(Propane-2-sulfonyl)-piperidin-4-ylmethyl]-piperazin-1-yl}-phenyl)-acetamide] registered a α1 % inhibition in the assay with α1 of under 10%. Moreover, the α2 % inhibition in the assay with α2 is reported as under 10%. The negative-log Ki (pKi) at 5-HT1A (read-out: 5-HT1A (Ki)) was 6.95.
Take `Cl.O=C(Nc1cccc(N2CCNCC2)c1)C1CC1` [Cyclopropanecarboxylic acid (3-piperazin-1-yl-phenyl)-amide HCl]: in the assay with α1, the α1 % inhibition stood at 0%. In the assay on α2, this compound returned a α2 % inhibition of 14%. The compound further showed a negative logarithm of the Ki (pKi) on 5-HT1A (5-HT1A (Ki)) of 8.34.
`CCCC(=O)Nc1cccc(N2CCN(CCCCNS(=O)(=O)c3ccc(C)cc3)CC2)c1` [N-(3-{4-[4-(Toluene-4-sulfonylamino)-butyl]-piperazin-1-yl}-phenyl)-butyramide] yielded a α1 % inhibition in the assay with α1 of 12%. In the assay on α2, the α2 % inhibition was 12%. The pKi on 5-HT1A (read-out: 5-HT1A (Ki)) is 7.25.
`CC(=O)Nc1cccc(N2CCN(CC3CCN(S(=O)(=O)CC4CCCCC4)CC3)CC2)c1` [N-{3-[4-(1-Cyclohexylmethanesulfonyl-piperidin-4-ylmethyl)-piperazin-1-yl]-phenyl}-acetamide] displayed a α1 % inhibition in the assay with α1 of 13%. The compound also showed a α2 % inhibition in the assay on α2 of under 10%. For the same compound, the pKi at 5-HT1A (read-out: 5-HT1A (Ki)) is 8.00.
`CC(=O)Nc1cccc(N2CCN(CCCCNS(=O)(=O)C(C)C)CC2)c1` [N-(3-{4-[4-(Propane-2-sulfonylamino)-butyl]-piperazin-1-yl}-phenyl)-acetamide] returned a α1 % inhibition with α1 of under 10%. The compound also had a α2 % inhibition in the assay on α2 of 12%. Besides, the pKi on 5-HT1A (read-out: 5-HT1A (Ki)) was 7.62.
In turn, `Cc1ccc(S(=O)(=O)NCCCCN2CCN(c3cccc(NC(=O)C4CC4)c3)CC2)cc1` [Cyclopropanecarboxylic acid (3-{4-[4-(toluene-4-sulfonylamino)-butyl]-piperazin-1-yl}-phenyl)-amide] returned a α1 % inhibition with α1 of 40%. Also, in the assay on α2, the α2 % inhibition came out at 15%. Moreover, the pKi on 5-HT1A (read-out: 5-HT1A (Ki)) is 7.68.
As to `CC(=O)Nc1cccc(N2CCN(CCCCNS(=O)(=O)CC3CCCCC3)CC2)c1` [N-{3-[4-(4-Cyclohexylmethanesulfonylamino-butyl)-piperazin-1-yl]-phenyl}-acetamide], in the assay on α2, the α2 % inhibition was under 10%. Further, the pKi on 5-HT1A (read-out: 5-HT1A (Ki)) is 7.96 to 8.29.
As for `Cc1ccc(S(=O)(=O)NCCCCN2CCN(c3cccc(NC(=O)C(C)(C)C)c3)CC2)cc1` [2,2-Dimethyl-N-(3-{4-[4-(toluene-4-sulfonylamino)-butyl]-piperazin-1-yl}-phenyl)-propionamide], the α1 % inhibition with α1 stood at 0%. Also, the α2 % inhibition with α2 is 11%.
For the compound `Cc1ccc(S(=O)(=O)NCCCCN2CCN(c3cccc([N+](=O)[O-])c3)CC2)cc1` [4-Methyl-N-{4-[4-(3-nitro-phenyl)-piperazin-1-yl]-butyl}-benzenesulfonamide HCl salt], the α1 % inhibition in the assay on α1 (HCl salt) came to 61%. Besides, in the assay with α2 (HCl salt), the α2 % inhibition was 23%. Moreover, on 5-HT1A (read-out: 5-HT1A (Ki)), the pKi was 6.98.
The compound `CC(=O)Nc1cccc(N2CCN(CCCCNS(=O)(=O)CC(C)C)CC2)c1` [N-(3-{4-[4-(2-Methyl-propane-1-sulfonylamino)-butyl]-piperazin-1-yl}-phenyl)-acetamide] returned a α1 % inhibition in the assay with α1 of 5%. In addition, the α2 % inhibition in the assay with α2 is recorded as 0%. The pKi at 5-HT1A (read-out: 5-HT1A (Ki)) is 7.96.
In the assay on α1, `CC(=O)Nc1cccc(N2CCN(CCCCNS(=O)(=O)c3ccc(F)cc3)CC2)c1` [N-(3-{4-[4-(4-Fluoro-benzenesulfonylamino)-butyl]-piperazin-1-yl}-phenyl)-acetamide] came in with a α1 % inhibition of 39%. This compound also yielded a α2 % inhibition in the assay on α2 of under 10%. Also, the pKi at 5-HT1A (read-out: 5-HT1A (Ki)) is 7.74.
As to `CC(=O)Nc1cccc(N2CCN(CC3CCN(S(=O)(=O)c4ccc(F)cc4)CC3)CC2)c1` [N-(3-{4-[1-(4-Fluoro-benzenesulfonyl)-piperidin-4-ylmethyl]-piperazin-1-yl}-phenyl)-acetamide], the α1 % inhibition in the assay on α1 was 49%. Also, the α2 % inhibition in the assay with α2 is under 10%. Moreover, the pKi on 5-HT1A (read-out: 5-HT1A (Ki)) is 7.89.
Turning to `O=S(=O)(c1ccc(F)cc1)N1CCC(CN2CCN(c3ccccn3)CC2)CC1` [1-[1-(4-Fluoro-benzenesulfonyl)-piperidin-4-ylmethyl]-4-pyridin-2-yl-piperazine], the α1 % inhibition with α1 was 42%. For the same compound, in the assay on α2, the α2 % inhibition is on record as 68%. The pKi on 5-HT1A (read-out: 5-HT1A (Ki)) was 7.68.
Compound `O=S(=O)(CC1CCCCC1)NCCCCN1CCN(c2ccccn2)CC1` [C-Cyclohexyl-N-[4-(4-pyridin-2-yl-piperazin-1-yl)-butyl]-methanesulfonamide] yielded a α1 % inhibition in the assay on α1 of 81%. In the assay with α2, this compound returned a α2 % inhibition of 51%. Besides, the negative logarithm of the Ki (pKi) at 5-HT1A (read-out: 5-HT1A (Ki)) is 8.19.
In the assay on α1, `CC(=O)Nc1cccc(N2CCN(CCCCNS(=O)(=O)C3CCCCC3)CC2)c1` [N-{3-[4-(4-Cyclohexanesulfonylamino-butyl)-piperazin-1-yl]-phenyl}-acetamide] displayed a α1 % inhibition of under 10%. For the same compound, the α2 % inhibition with α2 came out at 12%. Further, the pKi on 5-HT1A (read-out: 5-HT1A (Ki)) is 7.40.
As for `CN(C)c1cccc(N2CCN(CCCCNS(=O)(=O)CC3CCCCC3)CC2)c1` [C-Cyclohexyl-N-{4-[4-(3-dimethylamino-phenyl)-piperazin-1-yl]-butyl}-methanesulfonamide], in the assay with α1, the α1 % inhibition is on record as 85%. This compound also returned a α2 % inhibition with α2 of 25%. Also, the pKi at 5-HT1A (read-out: 5-HT1A (Ki)) was 6.96.
In the same order, the values of `Cc1ccc(S(=O)(=O)NCCCCN2CCN(c3cccc([N+](=O)[O-])c3)CC2)cc1` [4-Methyl-N-{4-[4-(3-nitro-phenyl)-piperazin-1-yl]-butyl}-benzenesulfonamide] are 56%, 14% and 6.90.
Take `CCC(=O)Nc1cccc(N2CCN(CCCCNS(=O)(=O)c3ccc(C)cc3)CC2)c1` [N-(3-{4-[4-(Toluene-4-sulfonylamino)-butyl]-piperazin-1-yl}-phenyl)-propionamide]: in the assay with α1, the α1 % inhibition turned out to be 0%. In the assay on α2, this compound registered a α2 % inhibition of 31%. Besides, the pKi on 5-HT1A (read-out: 5-HT1A (Ki)) is 6.67.
Compound `Cc1ccc(S(=O)(=O)NCCCCN2CCN(c3cccc(NC(=O)C(C)C)c3)CC2)cc1` [N-(3-{4-[4-(Toluene-4-sulfonylamino)-butyl]-piperazin-1-yl}-phenyl)-isobutyramide] registered a α1 % inhibition with α1 of 47%. The compound further came in with a α2 % inhibition with α2 of 12%. The pKi on 5-HT1A (read-out: 5-HT1A (Ki)) is 7.33.
Consider `O=C(Nc1cccc(N2CCN(CCCCNS(=O)(=O)CC3CCCCC3)CC2)c1)C1CC1` [Cyclopropanecarboxylic acid {3-[4-(4-cyclohexylmethanesulfonylamino-butyl)-piperazin-1-yl]-phenyl}-amide], for which, in the assay with α1, the α1 % inhibition was found to be 22%. Besides, the α2 % inhibition in the assay with α2 was under 10%. For the same compound, the negative-log Ki (pKi) at 5-HT1A (read-out: 5-HT1A (Ki)) was 8.05.
In the assay with α1, `Cc1ccc(S(=O)(=O)NCCCCN2CCN(c3cccc(NS(=O)(=O)C(C)C)c3)CC2)cc1` [4-Methyl-N-(4-{4-[3-(propane-2-sulfonylamino)-phenyl]-piperazin-1-yl}-butyl)-benzenesulfonamide] yielded a α1 % inhibition of 15%. Besides, the α2 % inhibition in the assay with α2 is given as under 10%. Also, on 5-HT1A (read-out: 5-HT1A (Ki)), the negative logarithm of the Ki (pKi) is 7.11.
In the case of `Cc1ccc(S(=O)(=O)NCCCCN2CCN(c3cccc(NS(C)(=O)=O)c3)CC2)cc1` [N-{4-[4-(3-Methanesulfonylamino-phenyl)-piperazin-1-yl]-butyl}-4-methyl-benzenesulfonamide], the α1 % inhibition in the assay on α1 was found to be 51%. The compound further registered a α2 % inhibition in the assay with α2 of 21%. Besides, at 5-HT1A (read-out: 5-HT1A (Ki)), the pKi is 7.34.
`CCS(=O)(=O)Nc1cccc(N2CCN(CCCCNS(=O)(=O)c3ccc(C)cc3)CC2)c1` [N-{4-[4-(3-Ethanesulfonylamino-phenyl)-piperazin-1-yl]-butyl}-4-methyl-benzenesulfonamide] displayed a α1 % inhibition in the assay with α1 of 47%. The same compound showed a α2 % inhibition in the assay with α2 of 14%. The pKi at 5-HT1A (read-out: 5-HT1A (Ki)) was 6.85.
